Results on five compounds are retold here after patent US6706747B2, “Conformationally rigid bicyclic and adamantane derivatives useful as α2-adrenergic blocking agents” (Allergan, Inc., priority 1994, dated 2004).

The test deals with T1, HT-29(α2A) (Homo sapiens, UniProt P08913).
T1 construct: HT-29 and chinese hamster ovary (CHO) cells expressing the human α2A (CHO—C10) receptor; endogenous in cells; host or cells: HT-29
T1 sequence (P08913 1-465): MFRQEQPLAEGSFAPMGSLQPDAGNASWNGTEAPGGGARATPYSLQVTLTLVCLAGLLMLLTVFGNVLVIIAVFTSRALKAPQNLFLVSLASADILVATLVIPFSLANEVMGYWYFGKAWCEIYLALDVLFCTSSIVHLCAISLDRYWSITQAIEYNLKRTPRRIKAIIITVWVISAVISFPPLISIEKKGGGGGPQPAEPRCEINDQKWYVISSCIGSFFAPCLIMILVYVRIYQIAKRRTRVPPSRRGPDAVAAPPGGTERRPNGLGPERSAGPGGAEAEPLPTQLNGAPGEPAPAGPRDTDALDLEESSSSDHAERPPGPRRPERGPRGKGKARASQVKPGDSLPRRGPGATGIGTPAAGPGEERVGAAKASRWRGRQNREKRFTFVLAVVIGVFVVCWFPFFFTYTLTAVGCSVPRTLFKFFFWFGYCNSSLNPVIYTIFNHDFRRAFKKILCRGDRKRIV
Kind of test: Radioligand binding, [3H]rauwolscine, HT-29 cell membranes. The note with it: values marked *: HT-29 cells, 22° C., 30 minutes. As for the experimental part:
Cell preparation: HT-29 and chinese hamster ovary (CHO) cells expressing the human α2A (CHO—C10) receptor and CHO cells (CHO—RNG) expressing the rat α2B adrenoceptor were grown to near confluency in Dulbecco's modified Eagle's medium supplemented with 10% fetal bovine serum using standard cell culture methods. Cells were harvested by scraping and placed into cold buffer of the following composition: 50 mM Tris-HCl, 5 mM EDTA, pH 7.4). Cells were then homogenized with a Polytron homogenizer for 2×10 secs at setting # 7, arid centrifuged for 20 minutes at 49,000×g. The pellet fraction was washed (resuspended in Tris-HCl, pH 8 buffer and centrifuged for 15-20 minutes at 49,000×g) 2 times and stored at −100° C. until binding assay.
Binding studies: The radioligands [^3H]rauwolscine (specific activity 80 Ci/mmol) and [^3H]prazosin (specific activity 76 Ci/mmol) were obtained from New England Nuclear, Boston, Mass. Frozen membrane pellet was resuspended in 25 mM glycine/glycine, pH 7.4 and incubated with radioligand under the following conditions: CHO—C10, CHO—RNG, HT-29-[^3H]rauwolscine, 22° C., 30 minutes; RKC-[^3H]rauwolscine, 0° C., 120 minutes; and, HCC-[^3H]prazosin, 22° C., 30 minutes in a final volume of 500 μl. At the end of the incubation period, the samples were filtered through glass fiber filters (Whatman GF/B) in a 96 well cell harvester and rapidly washed four times with 4 ml of ice-cold 50 mM, Tris-HCl buffer. The filters were then oven dried and transferred to scintillation vials containing 5 ml of Beckman's Ready Protein® scintillation cocktail for counting. Specific binding defined by 10 μM phentolamine for competition studies were as follows: 0.3 nM [^3H]rauwolscine—CHO—C10 99%; 0.4 nM[^3H]rauwolscine —CHO—RNG 99%; 0.7;nM [^3H]rauwolscine—HT-29 90%; 1 nm [^3]rauwolscine—RKC 92%, and 0.3 nM [^3H]prazosin—HCC 87%. Protein concentrations were determined with a protein assay kit from Bio Rad. Binding isotherms, equilibrium dissociation and affinity constants were analyzed and determined by the non-linear least squares curve fitting programs AccuFit Competition/Saturation by Beckman.
Binding studies: The radioligands [^3H]rauwolscine (specific activity 80 Ci/mmol), [^3H]prazosin (specific activity 76 Ci/mmol) and [^3H]brimonidine (UK-14,304; specific activity 63 Ci/mmol) were obtained from New England Nuclear, Boston, Mass. Frozen membrane pellet was resuspended either 50 mM tris, 2 mM EGTA, 1 mM MgCl2, pH7.5 (RbKC, RbICB-[^3H]brimonidine); 50 mM tris, 0.5 mM EDTA, 5 mM NaCl, pH 7.7 (RbICB-[^3H]rauwolscine); 25 mM glycine/glycine, pH 7.4 (RtKC, CHO—C10, CH—RNG, HT-29, HCC) or 50 mM tris, 0.1 mM MnCl2, pH7.7 (RtCC). Membrane protein homogenate (75-200 μg) was incubated with radioligand under the following conditions: RbKC and RbICB-[^3H]rauwolscine, 22° C., 45 minutes; RtCC and RbICB-[^3H]brimondine, 22° C., 90 minutes; CHO—C10, CHO—RNG and HT-29-[^3H]rauwolscine, 22° C., 30 minutes; HCC—[^3H]prazosin, 22° C., 30 minutes; and, in a final volume of 250 or 500 μl. At the end of the incubation period, the samples were filtered through glass fiber filters (Whatman GF/B) in a 24 or 96 well cell harvester and rapidly washed four times with 4 mls of iced-cold 50 mM Tris-HCl buffer. The filters were then oven dried and transferred to scintillation vials containing 10 mls of, Beckman's Ready Protein® scintillation cocktail for counting. […] Protein concentrations were determined with a protein assay kit from Bio Rad. […]

The structures appear in SMILES notation.

In the case of `CCCCNC1=NCCO1`, the Ki (commonly the equilibrium dissociation constant of an inhibitor or competing ligand from its target) amounted to 150 nM.
With `CC(C)C1C2CCC(C2)C1NC1=NCCO1` (centres unmarked) the figure was 43 nM.
With `CCCCC1C2CCC(C2)C1NC1=NCCO1` (centres unmarked) the figure was 29 nM.
The compound `CCCCC1C2CCC(C2)C1NC1=NCCS1` (centres unmarked) gave a Ki of 58 nM.
With `C1CCC(C2C3CCC(C3)C2NC2=NCCN2)CC1` (centres unmarked) the figure was 288 nM.
